Patent US20230180809A1, “NUTRACEUTIC COMPOSITION COMPRISING LIMONENE AND A DRY EXTRACT OF COCOA FIBRE FOR THE TREATMENT OF OBESITY” (TARGETING GUT DISEASE SRL, priority 2020, published 2023)

System: obese mice
Assay: slimming effect of limonene in obese mice
Assay type: in vivo
Conditions: obese mice after 12 weeks of high lipid diet, feed containing 0.5% of limonene ad libitum for 2 weeks
Description: Animal feed having a concentration of 0.5% in limonene corresponding to a daily dose of 0.6 g/kg of weight in humans. After 12 weeks of high lipid diet that caused obesity, mice were administered ad libitum, animal feed containing 0.5% of limonene for 2 weeks.

**Q.** With C=C(C)[C@H]1CC=C(C)CC1 [limonene] as the compound, how does the “accumulation of lipids in the cells” value read?
**A.** preventing the accumulation of lipids

**Q.** What about the “reduction of serum triglycerides” value of the same compound?
**A.** up to 47%

**Q.** What about the “size of both white and brown adipocytes” value of the same compound?
**A.** decreasing the size
